Data published in publication PMC5078989, “Targeted inhibition of the COP9 signalosome for treatment of cancer” (Nature Communications, 2016).

How the values were obtained:
[1] = tested on: TE-1 cells; test: Cell viability assay (CellTiter-Glo), TE-1; type: cell-based, human; settings: TE-1, 72 h; cytostatic
Description: (§1) Cells were maintained in a humidified incubator at 37 °C and 5% CO2. […] All cells were negatively tested for mycoplasma contamination either by the vendor or in house. […] If not stated otherwise, cells were harvested after incubation for 16 h and subjected to SDS-PAGE and western blotting. The RNA interference experiment was performed with CSN5 stealth siRNA (#HSS116986) and stealth negative control siRNA (#12935-400) (Invitrogen), which were transfected at 10 nM into HCT116 cells using […] (Qiagen) according to the manufacturer's protocols. Seventy-two hours after transfection, cells were harvested and subjected to SDS-PAGE and western blotting (see Supplementary Fig. 7 for all western blottings performed). A standardized CellTiter-Glo Assay (Promega #G7570) based on the quantification of ATP was applied according to the manufacturer's protocol to measure the amount of viable cells in culture. In brief, cells were seeded into 384-well plates at optimal density for each cell line. After 4 h, compounds were added at different concentrations in growth medium and incubated for another 72 h in a humidifying chamber at 37 °C and 5% CO2. Eventually, equal amounts of CellTiter-Glo reagent were added directly to the cells, incubated for 15 min and luminescence was recorded using PHERAstar plate reader (BMG LABTECH GmbH).

[2] = Blood concentrations of CSN5i-3 in xenograft study; type: in vivo, SCID-bg mice; settings: 50 mg kg^−1 BID and 100 mg kg^−1 QD oral
Description: All animal experiments were approved by the Kantonales Veterinäramt Basel-Stadt and were conducted in accordance with the Eidgenössisches Tierschutzgesetz and the Eidgenössische Tierschutzverordnung. SU-DHL-1 cells (1 × 10^7; DSMZ) were implanted subcutaneously into SCID-bg female 7–9-week-old mice (Taconic) and developing tumours were propagated once before subcutaneous transplantation for efficacy studies. Treatment was initiated when tumours reached 150–200 mm^3 volume. […] Randomization was conducted by using an internal computer software (Indigo). CSN5i-3 was formulated in 100 mM citrate buffer pH 3, PEG300, Kolliphor HS15, 1 N HCl (56:30:10:4%w/w). Tumour response is reported as percentage change in tumour volume at the last day of treatment relative to start of treatment. […] At day 10 of treatment blood, samples were taken and concentrations of CSN5i-3 were determined at indicated time points post dose using ultra-high-pressure liquid chromatography/tandem MS. At the end of treatment, tumours were excised and snap frozen in liquid nitrogen. Frozen tumours were pulverized using CryoPrep (Covaris Inc.) and protein lysates were prepared from tumour powder for immunoblot analysis.

[3] = tested on: SU-DHL-1 cells; test: Cell viability assay (CellTiter-Glo), SU-DHL-1; type: cell-based, human
Description: as §1

[4] = tested on: HCT116 cells; test: Cell viability assay (CellTiter-Glo), HCT116; type: cell-based, human; settings: HCT116, 72 h; cytotoxic
Description: as §1

[5] = tested on: SU-DHL-1 xenografts; test: Immunoblotting for Cul1 and Skp2 of tumours excised at end of treatment; type: in vivo, SCID-bg mice; settings: tumours excised at the end of the study
Description: (a) SU-DHL-1 xenografts were grown in SCID-bg mice and dosed by oral administration with either vehicle control or CSN5i-3 at the indicated doses and schedules. Mean tumour volumes are shown±s.e.m. (n=4; P<0.05). (b) Immunoblotting for Cul1 and Skp2 of tumours excised at the end of treatment. (c) Pharmacokinetics of CSN5i-3 post second to last dose. Mean blood concentrations are shown±s.e.m. (n=4). […] Cells from longer compound incubations were also lysed in RIPA buffer, which allows the protein concentration to be determined by BCA Protein Assay Kit (Pierce). Proteins were separated by SDS-PAGE using 4-20% Tris-Glycine Gels (Invitrogen) and subsequently transferred to polyvinylidene difluoride membranes using a Trans-Blot Turbo System (BioRad). […] Cul1 (1:500; #718700), Cul2 (1:250; #7001792), Rbx1 (1:300; #342500) (Invitrogen); Fbxw7 (1:300; # 55290-1-AP), Fbxo22 (1:500; #13606-1-AP) (Proteintech); Cul3 (1:1,000; # […]), CSN5 (1:2,000; #[…]) (Bethyl Laboratories); Fbxo3 (1:300; #AP9195) (Abgent); p21 (1:500; #556431) (BD Biosciences); Fbxo30 (1:500; # H00084085-B01) (Abnova); β-Actin (1:5,000; #A5441) (Sigma-Aldrich); Fbxo7 (1:500; #PA527589) (Pierce). Horseradish peroxidase-conjugated secondary antibodies (1:3,000) were purchased from Promega AG and bound antibody was detected by enhanced chemiluminescence (Pierce). […]

**Q.** For `CC(C)n1nc(C(F)F)cc1C(=O)Nc1ccc([C@H]2[C@@H](O)CCCc3cncn32)c(-c2ccccc2)c1` [CSN5i-3, 3-(Difluoromethyl)-N-(6-((5S,6S)-6-hydroxy-6,7,8,9-tetrahydro-5H-imidazo[1,5-a]azepin-5-yl)-[1,1′-biphenyl]-3-yl)-1-isopropyl-1H-pyrazole-5-carboxamide], which AMAX [1] is on record?
**A.** about −50%

**Q.** And the “dose dependence of exposure” value [2]?
**A.** dose-linear exposure

**Q.** And the EC50 ([3]; Homo sapiens, SU-DHL-1, 72 h, read-out: EC50 cell viability)?
**A.** 0.013 µM

**Q.** What about the AMAX ([3]; SU-DHL-1 in vitro, 72 h) of the same molecule?
**A.** ≤ −95%

**Q.** And the AMAX [4]?
**A.** ≤ −95%

**Q.** And the “Cul1 deneddylation in tumours” value [5]?
**A.** inhibited

**Q.** What about the “Skp2 levels in tumours” value [5] of the same molecule?
**A.** reduced
